The results in this text go back to patent US20260097091A1, “ADMINISTRATION OF GLUTATHIONE TRISULFIDE TO AMELIORATE PERIPHERAL NEUROPATHY” (The General Hospital Corporation, priority 2022, published 2026).

Data set [1] relates to primary cortical neurons. Kind of data set: axonal degeneration in primary cortical neurons. Format: cell-based, mice. To be noted: 10 μM of GSSSG.
Data set [2] deals with MDA-MB-231 human breast cancer cells. Kind of data set: MDA-MB-231 live cell count by trypan blue exclusion assay. It counts as cell-based. To be noted: 24 hours. As to the method:
To examine whether co-administration of GSSSG affects anti-tumor effects of paclitaxel, we conducted experiments using MDA-MB-231, a human breast cancer cell line (HTB-26, ATCC). Cells were cultured in the medium of 90% RPMI1640 (Corning, Cat No. 10-040-CV), 10% FBS, and 1% penicillin/streptomycin. After being seeded into a 96-well plate at the density of 20,000/well and cultured overnight, they were exposed to different concentrations of paclitaxel (0.125 μM, 0.25 μM, 0.5 μM, 1 μM, and 2 μM) and incubated for 24 hours. Cell viability was evaluated by LDH Cytotoxicity Detection Kit (Roche, Cat No. 11644793001). Briefly, a plate was centrifuged at 250×g for 10 minutes. […] After mixing with assay enzyme for 30 minutes at 25° C., absorbance was measured at wavelength 492 nm to determine cell viability. Inhibitory effects of paclitaxel were calculated by half-maximal inhibitory concentration (IC50). […] After being stripped by 0.25% trypsin, live cells were counted under 0.04% trypan blue. Five wells were evaluated per group.
Sample sizes for behavior test were chosen based on a previous study. All values are expressed as mean±standard deviation (SD). The behavior test results were analyzed in the mixed effect model because the behavior was measured repeatedly over five times from the same mice, and individual differences at baseline were confirmed in the preliminary study. […]

In data set [3] the test system is intraepidermal nerve fibers of hind paws. The experiment in a line: density of intraepidermal nerve fibers in hind paw skin (immunohistochemistry). Particulars: for density of intraepidermal nerve fibers: paclitaxel alone. It counts as in vivo, mice (C57BL/6J). As to the method:
Paclitaxel (Sigma-Aldrich) was dissolved with ethanol and cremophor (1:1) and diluted with normal saline (1:4). Peripheral neuropathy was induced in mice by intraperitoneal (i.p.) administration of 4 mg/kg paclitaxel every other day for a total of 4 injections (cumulative dose of 16 mg/kg), according to a previously described protocol. A stable, crystallized form of GSSSG was produced and provided by Kyowa Hakko Bio CO., LTD. GSSSG was pulverized and mixed in 0.5% methylcellulose. To evaluate the therapeutic effects of GSSSG in a model of PIPN, mice were randomly divided into three groups of 6. Mice were treated with: 1) paclitaxel alone; 2) paclitaxel and GSSSG; 3) or vehicle alone (control). Mice in groups 1 and 2 received paclitaxel as described above, while mice in the control group received the same volume of vehicle. The first dose of GSSSG was given within 1 hour after the first PTX injection. Treatment was administered as oral gavage for 28 days with GSSSG at 50 mg/kg/day (group 2) or 0.5% methylcellulose (groups 1 and 3). The dose of GSSSG was determined based on pilot studies. To determine the effect of GSSSG on the development of PIPN, behavioral tests to assess allodynia and hyperalgesia were conducted on all mice on days-1 (baseline), 7, 14, 21, and 28 after paclitaxel administration. Behavioral tests were performed by an investigator who was blinded to the treatment groups, as described in the next section. Density of intraepidermal nerve fiber (fibers/mm) of hind paws was calculated to evaluate peripheral nerve fiber damage by paclitaxel. Mice were deeply anesthetized with Isoflurane (4%) and euthanized by exsanguination on week 1 or week 4 after paclitaxel treatment for tissue harvest. […] Ten images per mouse (6 mice per group) were taken by fluorescence microscopy (Nikon Eclipse 80i, Nikon Instruments, Inc., Melville, NY), and four out of ten images were randomly selected. The density (fibers/mm basement membrane) was calculated as the number of intraepidermal nerve fiber divided by the length of basement membrane in accordance with the guideline.

Structures are written as SMILES.

On to `N[C@@H](CCC(=O)N[C@@H](CSSSC[C@H](NC(=O)CC[C@H](N)C(=O)O)C(=O)NCC(=O)O)C(=O)NCC(=O)O)C(=O)O` [GSSSG, glutathione trisulfide], for which, in data set [1], the “axonal degeneration in primary cortical neurons” value is listed as “prevented axonal degeneration”. In data set [2] (2 μM paclitaxel + 10 μM GSSSG), the “number of alive MDA-MB-231 cells” value is reported as 48.3 % of control cells. In addition, the “paclitaxel-induced loss of intraepidermal nerve fibers” value in data set [3] (daily oral 50 mg/kg GSSSG in paclitaxel-treated mice, 4 weeks after starting paclitaxel) is reported as “prevented paclitaxel-induced loss of intraepidermal nerve fibers”.
As to `CC(=O)O[C@H]1C(=O)[C@@]2(C)[C@H]([C@H](OC(=O)c3ccccc3)[C@]3(O)C[C@H](OC(=O)[C@H](O)[C@@H](NC(=O)c4ccccc4)c4ccccc4)C(C)=C1C3(C)C)[C@]1(OC(C)=O)CO[C@@H]1C[C@@H]2O` [paclitaxel, Paclitaxel, reference compound], in data set [2] (2 μM paclitaxel alone), the “number of alive MDA-MB-231 cells” value is listed as 44.9 % of control cells. Further, the “density of intraepidermal nerve fibers” value in data set [3] (1 week after starting paclitaxel) is recorded as “not at 1 week”; in data set [3] (4 weeks after starting paclitaxel), “decreased the density of intraepidermal nerve fibers at 4 weeks”.
